Source: the supplement of paper PMC11451515

Assays:
SEM cells [1] = experiment: cell viability relative to DMSO control; higher = less cytotoxic; details: 48 h
How it was run: (§1)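 NOMO1 or SEM (500 cells/well) or P12-Ichikawa (1000 cells/well) leukemia cells were adapted for at least four passages in each medium. They were seeded in 1536-well plates (5 μl) and pin-dosed with library compounds in DMSO over an 11-point threefold series, 47 μM to 0.79 nM. CellTiter-Glo One luminescence was read after 48 h at 37°C. Viability is the per-plate percentage relative to DMSO wells, with cell-free wells as background.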

SEM cells [2] = experiment: AUC of viability dose-response curve (% viability x log10 dose units); higher = less sensitive; details: 48 h
How it was run: (§2)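 In 1536-well plates, leukemia cells adapted to each medium (500 or 1000 cells/well) were exposed for 48 h at 37°C to library compounds in DMSO across 11 threefold doses, 47 μM down to 0.79 nM. Viability was read by CellTiter-Glo One luminescence and normalised per plate to DMSO and cell-free wells. A four-parameter log-logistic fit over log10 doses was integrated by trapezoidal rule. This yielded the area under the curve, with over-full-viability curves scaled and quality-control failures dropped.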

NOMO1 = experiment: as above; details: 48 h
How it was run: as §2

P12-Ichikawa [3] = experiment: as above; details: 48 h
How it was run: as §2

P12-Ichikawa [4] = experiment: cell viability relative to DMSO control; higher = less cytotoxic; details: HPLM + 10% dialyzed FBS, 48 h
How it was run: as §1

CC(=O)c1cnc2ccc(-c3cc(Cl)c(O)c(Cl)c3)nc2c1N[C@H]1CC[C@H](CN(C)C)CC1
SEM cells [1], HPLM + 10% dialyzed FBS
Details	cell viability [%]
0.000781 µM	110
0.00234 µM	101
0.00702 µM	105
0.0211 µM	99.2
0.0632 µM	63.5
0.19 µM	25.4
0.569 µM	16.2
1.71 µM	6.2
5.12 µM	6.52
15.4 µM	5.71
46.1 µM	6.59

AUC of viability dose-response curve
Details	NOMO1	P12-Ichikawa [3]	SEM cells [2]
HPLM + 10% dialyzed FBS	211	277	218
RPMI 5 mM glucose + 10% FBS	237	256	213
RPMI 5 mM glucose + 10% dialyzed FBS	237	253	208

COc1ccc2cc3[n+](cc2c1OC)CCc1cc2c(cc1-3)OCO2
AUC of viability dose-response curve
Details	NOMO1	P12-Ichikawa [3]	SEM cells [2]
HPLM + 10% dialyzed FBS	431	429	445
RPMI 5 mM glucose + 10% FBS	441	390	437
RPMI 5 mM glucose + 10% dialyzed FBS	442	411	428

Clc1cccc(-n2nnnc2NCc2ccccc2Oc2ccccn2)c1Cl
cell viability [%], SEM cells [1]
Details	HPLM + 10% dialyzed FBS	RPMI 5 mM glucose + 10% dialyzed FBS
0.000781 µM	102	116
0.00234 µM	123	149
0.00702 µM	124	125
0.0211 µM	133	140
0.0632 µM	123	113
0.19 µM	131	126
0.569 µM	128	149
1.71 µM	125	129
5.12 µM	127	148
15.4 µM	139	147
46.1 µM	138	119

Details	AUC of viability dose-response curve	cell viability [%]
NOMO1, HPLM + 10% dialyzed FBS	472	–
NOMO1, RPMI 5 mM glucose + 10% FBS	472	–
NOMO1, RPMI 5 mM glucose + 10% dialyzed FBS	470	–
P12-Ichikawa [3], HPLM + 10% dialyzed FBS	458	–
P12-Ichikawa [3], RPMI 5 mM glucose + 10% FBS	467	–
P12-Ichikawa [3], RPMI 5 mM glucose + 10% dialyzed FBS	441	–
P12-Ichikawa [4], 0.000781 µM	–	120
P12-Ichikawa [4], 0.00234 µM	–	120
P12-Ichikawa [4], 0.00702 µM	–	116
P12-Ichikawa [4], 0.0211 µM	–	124
P12-Ichikawa [4], 0.0632 µM	–	123
P12-Ichikawa [4], 0.19 µM	–	136
P12-Ichikawa [4], 0.569 µM	–	133
P12-Ichikawa [4], 1.71 µM	–	133
P12-Ichikawa [4], 5.12 µM	–	133
P12-Ichikawa [4], 15.4 µM	–	131
P12-Ichikawa [4], 46.1 µM	–	127
SEM cells [2], HPLM + 10% dialyzed FBS	439	–
SEM cells [2], RPMI 5 mM glucose + 10% FBS	470	–
SEM cells [2], RPMI 5 mM glucose + 10% dialyzed FBS	474	–
